From ChEMBL document CHEMBL1157883, “Synthesis and biological evaluation of novel 2-arylalkylthio-4-amino-6-benzyl pyrimidines as potent HIV-1 non-nucleoside reverse transcriptase inhibitors” (Bioorg Med Chem Lett, 2010) come the findings set out here.

The subject of assay [1] is Human immunodeficiency virus 1. As to the kind of experiment: Antiviral activity against HIV1 in cell based assay. It counts as functional, organism-based.
The subject of assay [2] is Human immunodeficiency virus 1. Description: Antiviral activity against pluri-resistant HIV1 IRLL98 in cell based assay. It is filed as functional, organism-based. Particulars: Human immunodeficiency virus 1, IRLL98.
Assay [3] concerns the target Human immunodeficiency virus type 1 reverse transcriptase (Human immunodeficiency virus 1) (UniProt Q72547). Description: Inhibition of HIV1 reverse transcriptase.
The target in assay [4] is Human immunodeficiency virus type 1 reverse transcriptase (Human immunodeficiency virus 1, UniProt Q72547). As to the kind of experiment: Inhibition of biotin-dUTP labeled HIV-1 reverse transcriptase after 30 mins colorimetric streptavidin alkaline phosphatase reporter system.
In assay [5] the target is Human immunodeficiency virus type 1 reverse transcriptase (Human immunodeficiency virus 1) (UniProt Q72547). As to the kind of experiment: Inhibition of biotin-dUTP labeled HIV-1 reverse transcriptase at 100 uM after 30 mins colorimetric streptavidin alkaline phosphatase reporter system.

Activity calls are given as the source filed them. The calls are words filed in the database; no cut-off is given here.

As to `Cc1cccc(CSc2nc(N)cc(Cc3ccccc3)n2)c1`, the EC50 is under 0.14 nM in assay [1] and 0.22 nM in assay [2]. Besides, the ID50 in assay [3] is 26 nM. For the same compound, it took 18000 nM to reach half-maximal inhibition in assay [4] (IC50).
For `CC(Sc1nc(Cl)cc(Cc2ccccc2)n1)c1ccccc1` (stereo unspecified), the inhibition entry in assay [5] is “inactive”.
As to `Nc1cc(Cc2ccccc2)nc(SCc2ccccc2)n1`, the EC50 in assay [1] was under 0.14 nM; in assay [2] it was 0.22 nM. In addition, the ID50 in assay [3] is 26 nM. This compound also yielded a concentration for half-maximal inhibition (IC50) in assay [4] of over 100000 nM.
Take `Nc1cc(Cc2ccccc2)nc(SCCc2ccccc2)n1`: the EC50 in assay [1] was under 0.14 nM; in assay [2], 0.22 nM. The inhibition entry in assay [5] was “inactive”.
On to `O=c1cc(Cc2ccccc2)nc(SCc2ccc3ccccc3c2)[nH]1`, for which the inhibition result in assay [5] was “inactive”.
Turning to `Clc1cc(Cc2ccccc2)nc(SCCCc2ccccc2)n1`, the inhibition result in assay [5] was “inactive”.
On the same count and under the same terms, next, `Clc1cc(Cc2ccccc2)nc(SCc2ccc3ccccc3c2)n1`: “inactive”; `COc1cccc(CSc2nc(Cl)cc(Cc3ccccc3)n2)c1`: “inactive”.
In the case of `O=c1cc(Cc2ccccc2)nc(SCc2ccccc2)[nH]1`, the inhibition entry in assay [5] was “inactive”.
Regarding `CC(Sc1nc(N)cc(Cc2ccccc2)n1)c1ccccc1` (stereo unspecified), the EC50 in assay [1] is under 0.14 nM; in assay [2], 0.22 nM. This compound also came in with an ID50 in assay [3] of 26 nM. Further, it took 63900 nM to reach half-maximal inhibition in assay [4] (IC50).
In the case of `CC(C)(C)c1ccc(CSc2nc(Cl)cc(Cc3ccccc3)n2)cc1`, the inhibition result in assay [5] was “inactive”.
On to `Clc1cc(Cc2ccccc2)nc(SCc2ccccc2)n1`, for which the IC50 in assay [4] was over 100000 nM.
`Cc1ccccc1CSc1nc(N)cc(Cc2ccccc2)n1`: the EC50 was under 0.14 nM in assay [1] and 0.22 nM in assay [2]. The ID50 in assay [3] came out at 26 nM. The concentration for half-maximal inhibition (IC50) in assay [4] came out at 29900 nM.
`Cc1cccc(CSc2nc(Cl)cc(Cc3ccccc3)n2)c1`: in assay [4], the IC50 came out at 90800 nM.
Consider `CC(C)(C)c1ccc(CSc2nc(N)cc(Cc3ccccc3)n2)cc1`, for which the concentration for a half-maximal effect (EC50) in assay [1] is under 0.14 nM; in assay [2], 0.22 nM. In addition, the ID50 in assay [3] was 26 nM. In addition, the inhibition entry in assay [5] is “inactive”.
`CC(C)(C)c1ccc(CSc2nc(Cc3ccccc3)cc(=O)[nH]2)cc1`: the inhibition result in assay [5] was “inactive”.
On to `Nc1cc(Cc2ccccc2)nc(SCCCc2ccccc2)n1`, for which the values for the half-maximal effective concentration (EC50) in assay [1] and in assay [2] were under 0.14 nM and 0.22 nM, respectively. The inhibition entry in assay [5] is “inactive”.
Regarding `Clc1cc(Cc2ccccc2)nc(SCCc2ccccc2)n1`, in assay [5], the inhibition result is “inactive”.
On to `COc1cccc(CSc2nc(N)cc(Cc3ccccc3)n2)c1`, for which the results for the EC50 in assay [1] and in assay [2] were under 0.14 nM and 0.22 nM, respectively. Moreover, the ID50 in assay [3] is 26 nM. In assay [4], this compound yielded an IC50 of over 100000 nM.
As to `Cc1ccccc1CSc1nc(Cl)cc(Cc2ccccc2)n1`, in assay [5], the inhibition result is “inactive”.
As for `Nc1cc(Cc2ccccc2)nc(SCc2ccc3ccccc3c2)n1`, the values for the EC50 in assay [1] and in assay [2] were under 0.14 nM and 0.22 nM, respectively. Also, the ID50 in assay [3] turned out to be 26 nM. Moreover, in assay [4], the IC50 amounted to 17100 nM.

For orientation: EC50 means the concentration that produces a half-maximal response. Read a low EC50 as a more potent agent. As usually defined, the IC50 is the concentration at which inhibition is half-maximal. The low end stands for inhibition by little substance, the high end for a need for much substance.
